From patent publication US20200263231A1, “Fluorogenic dyes for high sensitivity DNA detection” (LIFE TECHNOLOGIES CORPORATION, priority 2016, published 2020)

Key:
[1] = UV/VIS absorption spectra; assay type: physicochemical; details: 10 μM compound in 50 mM potassium phosphate buffer (pH 7.0)
Description: The UV/VIS absorption spectra were obtained with 10 μM compound solution in 50 mM potassium phosphate buffer (pH 7.0) in a final volume of 3 mL. Measurements were carried out using a Lambda 245 spectrophotometer from Perkin Elmer.

calf thymus DNA = assay: Fluorescence emission and enhancement of compounds bound to calf thymus DNA; assay type: binding; details: 0.8 μM compound with 500 ng/ml calf thymus DNA in TE buffer; for Emission Max: excited at 488 nm; for Fluorescence Enhancement: emission area 500-715 nm compared to compound 1, defined as 1000-fold
Description: Compounds 1-65 were prepared and their fluorescence absorption and emission characteristics were measured. Intrinsic fluorescence of the compounds only (without DNA) was negligible. Emission spectra for the compounds bound to dsDNA were obtained by incubating 0.8 μM compound with 500 ng/ml calf thymus DNA in TE buffer (10 mM Tris-HCl, pH 7.5, 1 mM EDTA) in a final volume of 3 ml. Measurements were made using PerkinElmer LS 55 (F-11) Fluorescence spectrometer. Samples were excited at 488 nm and fluorescence emission was measured with emission slit widths of 2.5 nm. Absorption maxima were determined according to standard techniques.
Fluorescence enhancement measurements of the compounds were obtained by incubating 0.8 μM compound with 500 ng/ml calf thymus DNA with compounds at a final concentration of 0.8 μM in TE buffer. Compound 1 was used as an internal standard to control for variability (e.g., in excitation light intensity). The area-under-curve of fluorescence emission spectra from 500 nm to 715 nm was calculated, and compared to that of compound 1, which was defined as having 1000-fold fluorescence enhancement relative to fluorescence of the compound alone.

SMILES | Absorbance Max [1] [nm] | Emission Max (calf thymus DNA) [nm] | Fluorescence Enhancement (calf thymus DNA) [fold]
CCCCN(CCC[N+](C)(C)Cc1cccc(OC)c1)C1=C/C(=C/c2sc3ccccc3[n+]2C)c2ccccc2N1c1ccccc1.[Br-].[I-] [Compound 14] | 497 | 526 | 907
CCN(CC[N+](C)(C)C)C1=C/C(=C/c2sc3ccccc3[n+]2C)c2ccccc2N1c1ccccc1.[Cl-].[I-] [Compound 29] | 506 | 528 | 648
CCN(CCC[N+](C)(C)C)C1=CC(=Cc2sc3ccccc3[n+]2C)c2ccc(OC)cc2N1c1ccccc1.[I-].[I-] [Compound 49] | 490 | 520 | 1035
CCCN(CCC[N+](C)(C)CCC)C1=CC(=Cc2sc3ccccc3[n+]2C)c2ccc(OC)cc2N1c1ccccc1.[I-].[I-] [Compound 44] | 494 | 518 | 1101
CCCN(CCC[N+](C)(C)Cc1ccccc1)C1=C/C(=C\c2sc3ccccc3[n+]2C)c2ccccc2N1c1ccccc1.[Br-].[Cl-] [Compound 6] | 502 | 523 | 979
CCN(CCC[N+](C)(C)C)C1=C/C(=C/c2sc3ccccc3[n+]2C)c2ccccc2N1c1ccccc1.[I-].[I-] [Compound 16] | 496 | 523 | 863
CC[N+](C)(C)CCCN(C)C1=C/C(=C/c2sc3ccccc3[n+]2C)c2ccccc2N1c1ccccc1.[I-].[I-] [Compound 23] | 498 | 524 | 622
CCCN(CCC[N+](C)(C)CCC)C1=C/C(=C/c2sc3ccccc3[n+]2C)c2ccccc2N1c1ccccc1.[I-].[I-] [Compound 4] | 501 | 524 | 925
CCN(CC[N+](C)(C)C)C1=C/C(=C/c2sc3ccccc3[n+]2C)c2ccc(OC)cc2N1c1ccccc1.[I-].[I-] [Compound 56] | 499 | 523 | 894
CCCN(CCC[N+](C)(C)CCO)C1=C/C(=C/c2sc3ccccc3[n+]2C)c2ccccc2N1c1ccccc1.[I-].[I-] [Compound 5] | 501 | 523 | 954
CCCCN(CCC[N+](C)(C)CC)C1=C/C(=C/c2sc3ccccc3[n+]2C)c2ccccc2N1c1ccccc1.[I-].[I-] [Compound 10] | 496 | 526 | 926
CCCCN(CCC[N+](C)(C)Cc1cccc(OC)c1)C1=CC(=Cc2sc3ccccc3[n+]2C)c2ccc(OC)cc2N1c1ccccc1.[Br-].[I-] [Compound 40] | 490 | 520 | 1050
CCCCN(CCC[N+](C)(C)Cc1ccccc1)C1=CC(=Cc2sc3ccccc3[n+]2C)c2ccc(OC)cc2N1c1ccccc1.[I-].[I-] [Compound 39] | 490 | 517 | 1080
CN(C)CCCC1=C/C(=C/c2sc3ccccc3[n+]2C)c2ccccc2N1c1ccccc1 [Compound 64] | 527 | 529 | 204
C[n+]1c(/C=C2/C=C(n3ccnc3)N(c3ccccc3)c3ccccc32)sc2ccccc21.[I-] [Compound 61] | 514 | 540 | 26
CCC[N+](C)(C)CCN(CC)C1=C/C(=C/c2sc3ccccc3[n+]2C)c2ccc(OC)cc2N1c1ccccc1.[I-].[I-] [Compound 58] | 496 | 521 | 874
CCN(CCC[N+](C)(C)Cc1cccc(OC)c1)C1=C/C(=C/c2sc3ccccc3[n+]2C)c2ccccc2N1c1ccccc1.[Br-].[I-] [Compound 20] | 497 | 523 | 871
CCCCN(CCC[N+](C)(C)C)C1=C/C(=C/c2sc3ccccc3[n+]2C)c2ccccc2N1c1ccccc1.[I-].[I-] [Compound 9] | 496 | 525 | 908
CCCN(CCC[N+](C)(C)CCO)C1=CC(=Cc2sc3ccccc3[n+]2C)c2ccc(OC)cc2N1c1ccccc1.[I-].[I-] [Compound 45] | 494 | 517 | 1093

SMILES | Absorbance Max [1] [nm] | Emission Max (calf thymus DNA) [nm] | Fluorescence Enhancement (calf thymus DNA) [fold]
CCCN(CCC[N+](C)(C)CC)C1=CC(=Cc2sc3ccccc3[n+]2C)c2ccc(OC)cc2N1c1ccccc1.[I-].[I-] [Compound 43] | 494 | 519 | 1033
C[n+]1ccn(C2=C/C(=C/c3sc4ccccc4[n+]3C)c3ccccc3N2c2ccccc2)c1.[I-].[I-] [Compound 62] | 519 | – | 0.3
CCN(CC[N+](C)(C)Cc1ccccc1)C1=C/C(=C/c2sc3ccccc3[n+]2C)c2ccccc2N1c1ccccc1.[Br-].[I-] [Compound 32] | 507 | 527 | 672
C[n+]1c(/C=C2/C=C(n3cnc4ccccc43)N(c3ccccc3)c3ccccc32)sc2ccccc21.[Cl-] [Compound 63] | 518 | 543 | 42
COc1cccc(C[N+](C)(C)CCCN(C)C2=C/C(=C/c3sc4ccccc4[n+]3C)c3ccccc3N2c2ccccc2)c1.[Br-].[I-] [Compound 27] | 498 | 521 | 668
CCCN(CCC[N+](C)(C)CC)C1=C/C(=C/c2sc3ccccc3[n+]2C)c2ccccc2N1c1ccccc1.[Cl-].[I-] [Compound 3] | 501 | 524 | 997
CCCCN(CCC[N+](C)(C)Cc1ccccc1)C1=C/C(=C/c2sc3ccccc3[n+]2C)c2ccccc2N1c1ccccc1.[Br-].[I-] [Compound 13] | 496 | 523 | 922
CCN(CC[N+](C)(C)CC)C1=C/C(=C/c2sc3ccccc3[n+]2C)c2ccc(OC)cc2N1c1ccccc1.[I-].[I-] [Compound 57] | 496 | 521 | 877
CCCCN(CCC[N+](C)(C)CCO)C1=C/C(=C/c2sc3ccccc3[n+]2C)c2ccccc2N1c1ccccc1.[I-].[I-] [Compound 12] | 496 | 525 | 937
CN(CCC[N+](C)(C)CCO)C1=C/C(=C/c2sc3ccccc3[n+]2C)c2ccccc2N1c1ccccc1.[I-].[I-] [Compound 25] | 497 | 523 | 640
CCN(CCN(C)C)C1=C/C(=C/c2sc3ccccc3[n+]2C)c2ccc(OC)cc2N1c1ccccc1.[I-] [Compound 55] | 496 | 520 | 908
CCN(CC[N+](C)(C)Cc1ccccc1)C1=C/C(=C/c2sc3ccccc3[n+]2C)c2ccc(OC)cc2N1c1ccccc1.[I-].[I-] [Compound 60] | 500 | 522 | 878
CCN(CCN(C)C)C1=C/C(=C/c2sc3ccccc3[n+]2C)c2ccccc2N1c1ccccc1.[Cl-] [Compound 28] | 504 | 525 | 672
CCCCN(CCC[N+](C)(C)CCO)C1=CC(=Cc2sc3ccccc3[n+]2C)c2ccc(OC)cc2N1c1ccccc1.[I-].[I-] [Compound 38] | 489 | 520 | 1089
C[n+]1c(/C=C2/C=C(CCC[N+](C)(C)C)N(c3ccccc3)c3ccccc32)sc2ccccc21 [Compound 65] | 527 | 530 | 136
CCCCN(CCC[N+](C)(C)CCC)C1=C/C(=C/c2sc3ccccc3[n+]2C)c2ccccc2N1c1ccccc1.[I-].[I-] [Compound 11] | 496 | 524 | 903
CCCN(CCCN(C)C)C1=C/C(=C/c2sc3ccccc3[n+]2C)c2ccccc2N1c1ccccc1 [Compound 1, reference compound] | 500 | 523 | 1000
CCN(CCC[N+](C)(C)Cc1ccccc1)C1=C/C(=C/c2sc3ccccc3[n+]2C)c2ccccc2N1c1ccccc1.[Br-].[I-] [Compound 19] | 497 | 524 | 884
